This assay concerns the target b-Raf(V600E) (Homo sapiens (Human), UniProt P15056, V600E). Briefly: Raf/Mek Amplified Luminescence Proximity Homogeneous Assay (Alpha Screen). The class given is biochemical. To be noted: b-Raf(V600E) approximately 4 pM; biotinylated Mek, kinase dead approximately 10 nM; ATP 10 μM; pre-incubation 60 minutes; reaction 3 hours at room temperature; read-out: mut-B-RAF IC50. The gist of the method: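 Raf pre-incubated with compound and kinase-dead biotinylated Mek (~10 nM) for 60 min, room temperature, in 50 mM Tris pH 7.5, 15 mM MgCl2, 0.01% BSA, 1 mM DTT; ATP-started reaction 1 or 3 h, EDTA stop. Phospho-MEK detected by anti-p-MEK1/2 AlphaScreen; IC50 by non-linear regression.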

Consider 6 compounds from patent US8563553B2, “Compounds and compositions as protein kinase inhibitors” (Novartis AG, priority 2009, dated 2013).

Molecules are shown by their SMILES.

Sequence of b-Raf(V600E) (P15056 whole entry V600E): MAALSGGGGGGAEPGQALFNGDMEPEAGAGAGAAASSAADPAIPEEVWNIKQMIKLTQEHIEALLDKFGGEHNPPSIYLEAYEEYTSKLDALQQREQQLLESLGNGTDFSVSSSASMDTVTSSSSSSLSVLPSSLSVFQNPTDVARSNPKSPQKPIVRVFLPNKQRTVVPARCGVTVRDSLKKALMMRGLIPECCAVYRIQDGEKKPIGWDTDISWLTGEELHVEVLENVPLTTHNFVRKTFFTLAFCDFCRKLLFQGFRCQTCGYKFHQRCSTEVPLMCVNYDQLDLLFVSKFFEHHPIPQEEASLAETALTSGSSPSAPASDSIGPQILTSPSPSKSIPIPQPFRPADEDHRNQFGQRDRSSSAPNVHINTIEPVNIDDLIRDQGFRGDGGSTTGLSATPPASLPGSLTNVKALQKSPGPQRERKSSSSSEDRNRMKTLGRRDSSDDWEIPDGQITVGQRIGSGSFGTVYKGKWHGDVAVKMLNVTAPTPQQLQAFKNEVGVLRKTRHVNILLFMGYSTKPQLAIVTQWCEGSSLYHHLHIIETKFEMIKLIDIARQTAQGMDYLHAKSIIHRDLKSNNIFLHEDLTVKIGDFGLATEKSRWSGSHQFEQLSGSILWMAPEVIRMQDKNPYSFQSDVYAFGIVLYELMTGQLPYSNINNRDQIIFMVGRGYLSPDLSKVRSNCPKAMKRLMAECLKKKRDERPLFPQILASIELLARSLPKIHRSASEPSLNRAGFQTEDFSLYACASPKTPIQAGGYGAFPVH

`COC(=O)N[C@@H](C)CNc1nccc(-c2[nH]c(C3CC3)nc2-c2cc(Cl)cc(NS(=O)(=O)c3ccc(C(F)(F)F)cc3)c2F)n1` [Example 1BN, (S)-Methyl 1-(4-(4-(5-chloro-2-fluoro-3-(4-(trifluoromethyl)phenylsulfonamido)phenyl)-2-cyclopropyl-1H-imidazol-5-yl)pyrimidin-2-ylamino)propan-2-ylcarbamate]: the IC50 is 7 nM.

`CCCS(=O)(=O)Nc1cc(F)cc(-c2nc(C3CC3)[nH]c2-c2ccncn2)c1Cl` [Example 2K, N-(2-Chloro-3-(2-cyclopropyl-5-(pyrimidin-4-yl)-1H-imidazol-4-yl)-5-fluorophenyl)propane-1-sulfonamide]: the concentration for half-maximal inhibition (IC50) was 4 nM. The value for `COC(=O)N[C@@H](C)CNc1nccc(-c2[nH]c(C3CC3)nc2-c2cc(F)cc(NS(C)(=O)=O)c2Cl)n1` [Example 5A, (S)-methyl 1-(4-(4-(2-chloro-5-fluoro-3-(methylsulfonamido)phenyl)-2-cyclopropyl-1H-imidazol-5-yl)pyrimidin-2-ylamino)propan-2-ylcarbamate] was 0.4 nM; that for `COC(=O)N[C@@H](C)CNc1nccc(-c2nc(C(C)(C)C)[nH]c2-c2cc(NS(=O)(=O)C(C)C)cc(OC(F)F)c2)n1` [Example 1P, (S)-Methyl 1-(4-(2-tert-butyl-5-(3-(difluoromethoxy)-5-(1-methylethylsulfonamido)phenyl)-1H-imidazol-4-yl)pyrimidin-2-ylamino)propan-2-ylcarbamate] was 11.2 nM; that for `COC(=O)N[C@@H](C)CNc1nccc(-c2[nH]c(C(C)(C)C)nc2-c2cc(Cl)cc(NS(=O)(=O)C(C)C)c2C)n1` [Example 1O, (S)-Methyl 1-(4-(2-tert-butyl-4-(5-chloro-2-methyl-3-(1-methylethylsulfonamido)phenyl)-1H-imidazol-5-yl)pyrimidin-2-ylamino)propan-2-ylcarbamate] was 67.2 nM. For `COC(=O)N[C@@H](C)CNc1nccc(-c2[nH]c(C(C)(C)C)nc2-c2cc(Cl)cc(NS(=O)(=O)C(C)C)c2)n1` [Example 1J, (S)-Methyl 1-(4-(2-tert-butyl-4-(3-chloro-5-(1-methylethylsulfonamido)phenyl)-1H-imidazol-5-yl)pyrimidin-2-ylamino)propan-2-ylcarbamate], the IC50 came to 1.35 nM.
